Reference: US11926619B2, “Certain pladienolide compounds and methods of use” (EISAI R&D MANAGEMENT CO., LTD., priority 2018, dated 2024)

Experiments:
[1] = tested on: WiDr cells (colon cancer cells; wildtype SF3B1); assay: Cell viability assay (CellTiter-Glo, 72 hr), WiDr cells; assay type: cell-based; conditions: Homo sapiens; WiDr cells (wildtype SF3B1); read-out: WiDr GI50
In short: (§1)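 Cells at 2000/well were exposed to 9 compound concentrations (0.1% DMSO) in duplicate or triplicate for 72 hr at 37 °C. ATP was read by CellTiter-Glo against a time-zero plate and DMSO control growth. Percent growth/viability was plotted against concentration to give Emax; negative values indicate lethality.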

[2] = tested on: WiDr-R cells (colon cancer cells; chemically-induced SF3B1 R1074H mutant); assay: Cell viability assay (CellTiter-Glo, 72 hr), resistant WiDr-R cells (counter-screen); assay type: cell-based; conditions: WiDr-R cells (SF3B1 R1074H mutation, resistant); read-out: WiDr-R GI50
In short: as §1

[3] = tested on: Panc 05.04 cells (pancreatic cancer cells; Q699H and K700E mutations in SF3B1); assay: Cell viability assay (CellTiter-Glo, 72 hr), Panc 05.04 cells; assay type: cell-based; conditions: Panc 05.04 cells (mutant SF3B1); for Emax: maximum achievable response in tested dose range, negative value = cellular lethality, read-out: Panc 05.04 (mt SF3B1 cells) Emax (%); for GI50: read-out: Panc 05.04 (mt SF3B1 cells), GI50
In short: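 Viability was read as ATP content (CellTiter-Glo) after 72 hr compound exposure of Panc 05.04 cells at 37 °C, nine concentrations, 0.1% DMSO. Percentage growth was referenced to time-zero and vehicle wells and plotted against concentration to obtain Emax; negative Emax denotes cell killing.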

[4] = biological target: T1, SF3b complexes (Homo sapiens, UniProt O75533+Q7RTV0); assay: Scintillation proximity assay (SPA) with [3H]-labelled pladienolide probe; assay type: binding; conditions: wt SF3B1, read-out: SPA (wt SF3B1 cells) IC50
T1 construct: endogenous in cells
Experimental: Batch immobilization of anti-SF3B1 antibody (MBL) to anti-mouse PVT SPA scintillation beads (PerkinElmer) was prepared as follows: for every 2.5 mg of nuclear extracts, 5 μg anti-SF3B1 antibody and 1.5 mg of beads were mixed in 150 μl PBS. The antibody-bead mixture was incubated for 30 min at RT and centrifuged at 18,000 g for 5 min. 150 μl PBS was used to resuspend every 1.5 mg antibody-bead mixture. The beads were suspended and added to the prepared nuclear extracts. The slurry was incubated for 2 h at 4° C. with gentle mixing. The beads were then collected by centrifuging at 18,000 g for 5 min, and washed twice with PBS+0.1% Triton X-100. After a final centrifugation step, every 1.5 mg of beads was suspended with 150 μl of PBS. The SF3b complexes were tested for [^3H]-labelled pladienolide probe binding ([^3H]-PB), synthesized as previously described (Kotake et al., 2007). 100 μL binding reactions were prepared with 50 μl bead slurry and by adding varying concentrations of PB or PB—OH, and after 30 min pre-incubation, 2.5 nM [^3H]—PB was added. The mixture was incubated for 30 min, and luminescence signals were read using a MicroBeta2 Plate Counter (PerkinElmer). Prism 6 (Graphpad) was used for non-linear regression curve fitting of the data.

| Compound | GI50 [1] [nM] | GI50 [2] [nM] | Emax [3] [%] | GI50 [3] [nM] | IC50 [4] [nM] |
| --- | --- | --- | --- | --- | --- |
| CC(=O)O[C@H]1/C=C/[C@H](C)[C@@H](/C(C)=C/C=C/[C@@H](C)COC(=O)N2CCC[C@H]2C)OC(=O)C[C@H](O)CC[C@@]1(C)O | 0.983 | > 1000 | -79.3 | 2.11 | 2.72 |
| C/C(=C\C=C\[C@@H](C)COC(=O)N1CCC[C@H]1CO)[C@H]1OC(=O)C[C@H](O)CC[C@@](C)(O)[C@@H](OC(=O)N2CCN(C)CC2)/C=C/[C@@H]1C | 29.4 | > 1000 | -77.2 | 20.3 | 14 |
| C/C(=C\C=C\[C@@H](C)COC(=O)N1CC[C@@H](O)C1)[C@H]1OC(=O)C[C@H](O)CC[C@H](C)[C@@H](OC(=O)N2CCN(C)CC2)/C=C/[C@@H]1C | 4.86 | > 1000 | -83.3 | 3.37 | 5.43 |
| CC(=O)O[C@H]1/C=C/[C@H](C)[C@@H](/C(C)=C/C=C/[C@@H](C)c2ccccn2)OC(=O)C[C@H](O)CC[C@@H]1C | 421 | > 10000 | 28.1 | 2890 | 538 |
| CC[C@H](O)[C@@H](C)[C@H]1O[C@@H]1C[C@@](C)(O)/C=C/C=C(\C)[C@H]1OC(=O)C[C@H](O)CC[C@H](C)[C@@H](OC(C)=O)/C=C/[C@@H]1C | 2.14 | 822 | -65.3 | 4.88 | 5.28 |
| C/C(=C\C=C\[C@H](C)c1nccc(C)n1)[C@H]1OC(=O)C[C@H](O)CC[C@@](C)(O)[C@@H](OC(=O)N2CCN(C3CCCCCC3)CC2)/C=C/[C@@H]1C | 125 | > 1000 | -76.7 | 101 | 9.7 |
| C/C(=C\C=C\C(C)c1cccnc1)[C@H]1OC(=O)C[C@H](O)CC[C@@](C)(O)[C@@H](OC(=O)N2CCN(C3CCCCCC3)CC2)/C=C/[C@@H]1C (stereo partly drawn) | 19.7 | > 1000 | -95.4 | 10.4 | 2.51 |
| C/C(=C\C=C\[C@@H](C)c1ccccn1)[C@H]1OC(=O)C[C@H](O)CC[C@@](C)(O)[C@@H](OC(=O)N2CCNCC2)/C=C/[C@@H]1C | 16 | > 1000 | -76.5 | 39.5 | 26.9 |
| C/C(=C\C=C\[C@@H](C)CNC(=O)N1CCCC1)[C@H]1OC(=O)C[C@H](O)CC[C@@](C)(O)[C@@H](OC(=O)N2CCN(C3CCCCCC3)CC2)/C=C/[C@@H]1C | 27.6 | > 1000 | -90.9 | 19.8 | 5.24 |
| C/C(=C\C=C\[C@H](C)COC(=O)N1CCCC1)[C@H]1OC(=O)C[C@H](O)CC[C@@](C)(O)[C@@H](OC(=O)N2CCN(C3CCCCCC3)CC2)/C=C/[C@@H]1C | 11.8 | 862 | -93.5 | 11.7 | 11.6 |
| CC(=O)O[C@H]1/C=C/[C@H](C)[C@@H](/C(C)=C/C=C/[C@@H](C)c2ccccn2)OC(=O)C[C@H](O)CC[C@@]1(C)O | 231 | > 10000 | -16.1 | 538 | 45.1 |
| C/C(=C\C=C\[C@@H](C)COC(=O)N1CCC[C@H]1CO)[C@H]1OC(=O)CCCC[C@@](C)(O)[C@@H](OC(=O)N2CCN(C)CC2)/C=C/[C@@H]1C | 1.74 | > 1000 | -72.3 | 2.07 | 2.54 |
| C/C(=C\C=C\[C@@H](C)COC(=O)N1CCC[C@H]1CF)[C@H]1OC(=O)C[C@H](O)CC[C@@](C)(O)[C@@H](OC(=O)N2CCN(C3CCCCCC3)CC2)/C=C/[C@@H]1C | 1.24 | > 1000 | -72.7 | 1.75 | 4.23 |
| C/C(=C\C=C\[C@@H](C)COC(=O)N1CC[C@@H](O)C1)[C@H]1OC(=O)C[C@H](O)CC[C@H](C)[C@@H](OC(=O)N2CCN(C3CCCCCC3)CC2)/C=C/[C@@H]1C | 8.27 | > 1000 | -77.8 | 10.8 | 5.67 |
| C/C(=C\C=C\C(C)c1cnccn1)[C@H]1OC(=O)C[C@H](O)CC[C@@](C)(O)[C@@H](OC(=O)N2CCN(C3CCCCCC3)CC2)/C=C/[C@@H]1C (stereo partly drawn) | 31.9 | > 10000 | -93.7 | 22.1 | 6.37 |
| CC(=O)O[C@H]1/C=C/[C@H](C)[C@@H](/C(C)=C/C=C/[C@@H](C)CO)OC(=O)C[C@H](O)CC[C@@]1(C)O | 4040 | > 10000 | 47.5 | 6920 | 326 |
| C/C(=C\C=C\C(C)c1cccnn1)[C@H]1OC(=O)C[C@H](O)CC[C@@](C)(O)[C@@H](OC(=O)N2CCN(C)CC2)/C=C/[C@@H]1C (stereo partly drawn) | 18.7 | > 1000 | -90.9 | 59.2 | 9.2 |
| CC[C@H](O)[C@@H](C)NC(=O)OC[C@H](C)/C=C/C=C(\C)[C@H]1OC(=O)C[C@H](O)CC[C@@](C)(O)[C@@H](OC(C)=O)/C=C/[C@@H]1C | 555 | > 10000 | -92.8 | 327 | 53.4 |
| CC[C@H](OC(C)=O)[C@@H](C)[C@H]1O[C@@H]1C[C@@](C)(O)/C=C/C=C(\C)[C@H]1OC(=O)C[C@H](O)CC[C@@](C)(O)[C@@H](OC(=O)N2CCN(C3CCCCCC3)CC2)/C=C/[C@@H]1C | 2 | 132 | -78.6 | 2.41 | 5.85 |
| C/C(=C\C=C\[C@@H](C)COC(=O)N1CCC[C@H]1CO)[C@H]1OC(=O)C[C@H](O)CC[C@@](C)(O)[C@@H](OC(=O)N2CCN(C3CCCCCC3)CC2)/C=C/[C@@H]1C | 2.73 | 40.1 | -70.4 | 2.39 | 7.03 |
| C/C(=C\C=C\[C@@H](C)CNC(=O)C1CCCC1)[C@H]1OC(=O)C[C@H](O)CC[C@@](C)(O)[C@@H](OC(=O)N2CCN(C3CCCCCC3)CC2)/C=C/[C@@H]1C | 73 | > 1000 | -88.4 | 53.3 | 11.2 |
| C/C(=C\C=C\C(C)c1cccnc1)[C@H]1OC(=O)C[C@H](O)CC[C@@](C)(O)[C@@H](OC(=O)N2CCC(N3CCC(F)(F)CC3)CC2)/C=C/[C@@H]1C (stereo partly drawn) |  |  | -2.9 | 94.8 | 30.9 |
| C\C(=C/C=C/C=C/[C@@H](C)c1ccccn1)C1OC(=O)C[C@H](O)CC[C@@](C)(O)[C@@H](OC(=O)N2CCN(C3CCCCCC3)CC2)/C=C/[C@@H]1C (stereo partly drawn) |  |  | 11 | 720 | 120 |
| CC[C@H](O)[C@@H](C)[C@H]1O[C@@H]1C[C@@](C)(O)/C=C/C=C(\C)[C@H]1OC(=O)C[C@H](O)CC[C@@](C)(OC(=O)N2CCNCC2)[C@@H](OC(C)=O)/C=C/[C@@H]1C |  |  | -74.2 | 23.5 | 5.92 |
| C/C(=C\C=C\[C@@H](C)c1ccccn1)[C@H]1OC(=O)C[C@H](O)CC[C@@](C)(O)[C@@H](OC(=O)N2CCC(N3CC4CCC(C3)C4(F)F)CC2)/C=C/[C@@H]1C |  |  | -90.3 | 76.1 | 47.3 |
| C/C(=C\C=C\[C@@H](C)c1ccccn1)[C@H]1OC(=O)C[C@H](O)CC[C@@](C)(O)[C@@H](O)/C=C/[C@@H]1C |  |  | 49.5 | 3980 | > 1200 |
| CC[C@H](O)[C@@H](C)[C@H]1O[C@@H]1C[C@@](C)(O)/C=C/C=C(\C)[C@H]1OC(=O)C[C@H](O)CC[C@@](C)(OC(C)=O)[C@@H](OC(=O)N2CCNCC2)/C=C/[C@@H]1C |  |  | -73.2 | 26.8 | 8.78 |
| CC[C@H](O)[C@@H](C)[C@H]1O[C@@H]1C[C@H](C)/C=C/C=C(\C)[C@H]1OC(=O)C[C@H](O)CC[C@@](C)(OC(=O)N2CCNCC2)[C@@H](OC(C)=O)/C=C/[C@@H]1C |  |  | -78.9 | 0.86 | 2.08 |
| CC[C@H](O)[C@@H](C)[C@H]1O[C@@H]1C[C@H](C)/C=C/C=C(\C)[C@H]1OC(=O)C[C@H](O)CC[C@@](C)(OC(C)=O)[C@@H](OC(=O)N2CCNCC2)/C=C/[C@@H]1C |  |  | -47.1 | 2.05 | 2.12 |
